Patent US20230152317A1, “DIAGNOSIS AND TREATMENT OF COVID-19” (priority 2020, published 2023)

Key:
[1] = tested on: human pulmonary microvascular endothelial cells (hPMVEC); assay: Basal intracellular nitric oxide production in hPMVEC (DAF-FM fluorescence) after hyaluronidase treatment
Experimental: Isolation and culture of human pulmonary microvascular endothelial cells (hPMVEC): hPMVEC were isolated from resected human lung as previously described (35, 36). Briefly, human peripheral lung tissue was finely minced, and digested in 0.3% type II collagenase at 37° C. The digested suspension was filtered, centrifuged, and washed in PBS. Endothelial cells were then isolated using magnetic Dynabeads coated with anti-human CD31 antibody. Isolated cells were resuspended in EGM-2 (Lonza #CC-3162) with 10% fetal bovine serum and placed at 37° C. in 5% CO2 until 50% confluent, then harvested and re-purified using anti-CD31-coated magnetic microbeads as above. PMVEC were propagated in EGM-2+10% FBS and 20 mM HEPES on fibronectin-coated flasks and passages 4-9 used.
Hyaluronidase treatment of hPMVEC: PMVEC (2.5×10^4/well) were plated on fibronectin-coated 4-well plates in EGM-2+10% FBS and 20 mM HEPES. After 2 days, media was changed to HBSS (+100 mM HEPES, no bicarb)+0.01% BSA and hPMVEC were treated for 1 h with hyaluronidase (0.5 mg/mL; Sigma #H3506). Following treatment, hPMVEC were loaded with a nitric oxide-sensitive fluorochrome (2 μM DAF-FM DA (Thermo Fisher #D23844) for 1h before lysing with 0.5% SDS in PBS. After centrifugation for 10 min at 1×10^4RCF, the fluorescence of triplicate aliquots of supernatant were measured using a Victor3 multilabel fluorescence microplate reader (Wallac Oy; Perkin Elmer, Inc.) at 485/520 for DAF-FM. The nitric oxide donor DETA NONOate (20 μM; Cayman #82120) was used as the positive control.

COVID-19 patients = conditions: anticoagulant treatment, reference 49; cited from earlier work

## NCCN(CCN)/[N+]([O-])=N/O [DETA NONOate]
[1]; positive control at 20 μM, compared to untreated controls (data not shown)
  increase of nitric oxide production: 16%

## Hyaluronidase
[1]; hyaluronidase 0.5 mg/mL for 1 h, compared to untreated PMVEC, n=5 separate experiments, P=0.008
  decrease of basal intracellular nitric oxide production: 98%
[1]; hyaluronidase 0.5 mg/mL for 1 h, n=5 separate experiments
  basal intracellular nitric oxide production after treatment (DAF-FM fluorescence): 64±87.5 RFUs

## low molecular weight heparin
COVID-19 patients
  overall survival advantage: did not confer an overall survival advantage
